In ChEMBL document CHEMBL3232855, “The discovery of N-((2H-tetrazol-5-yl)methyl)-4-((R)-1-((5r,8R)-8-(tert-butyl)-3-(3,5-dichlorophenyl)-2-oxo-1,4-diazaspiro[4.5]dec-3-en-1-yl)-4,4-dimethylpentyl)benzamide (SCH 900822): a potent and selective glucagon receptor antagonist” (J Med Chem, 2014):
Calls of active or inactive are those of the source. The calls are words filed in the database; no cut-off is given here.

Key:
[1] = Volume of distribution at steady state in mouse at 3 mg/kg, iv; assay type: ADME, organism-based; parameters: dose 3 mg/kg, route intravenous; details: in vivo, read-out: Vdss
Glucagon receptor = Glucagon receptor (Homo sapiens, UniProt P47871); assay: biochemical; assay type: cell-based, CHO
Sequence of Glucagon receptor (P47871 whole entry): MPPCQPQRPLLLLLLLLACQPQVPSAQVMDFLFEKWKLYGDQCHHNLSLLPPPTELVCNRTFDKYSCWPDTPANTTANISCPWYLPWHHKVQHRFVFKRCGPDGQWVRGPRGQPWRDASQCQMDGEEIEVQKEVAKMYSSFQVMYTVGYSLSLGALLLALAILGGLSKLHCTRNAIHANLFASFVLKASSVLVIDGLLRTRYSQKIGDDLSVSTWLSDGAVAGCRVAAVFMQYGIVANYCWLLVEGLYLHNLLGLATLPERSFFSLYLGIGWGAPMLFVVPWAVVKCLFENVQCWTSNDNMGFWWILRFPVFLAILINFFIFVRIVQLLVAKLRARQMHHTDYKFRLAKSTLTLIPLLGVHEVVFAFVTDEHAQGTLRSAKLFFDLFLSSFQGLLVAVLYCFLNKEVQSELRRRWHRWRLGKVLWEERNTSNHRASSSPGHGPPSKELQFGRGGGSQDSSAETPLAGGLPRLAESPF
Description: Displacement of [125I]-glucagon from recombinant human GCGR expressed in CHO cells after 60 mins by scintillation counting analysis

Mus musculus [2] = assay: Antidiabetic activity in streptozotocin-induced ICR mouse type-2 diabetic model assessed as decrease in fasting blood glucose level at 30 mg/kg, po measured at 8 hrs by glucometer relative to vehicle-treated control; assay type: functional, organism-based; parameters: dose 30 mg/kg
[3] = Oral bioavailability in rat at 3 mg/kg; assay type: ADME, organism-based; details: in vivo
[4] = target: T1, Vasoactive intestinal polypeptide receptor 1 (Homo sapiens) (UniProt P32241); assay: Binding affinity to VIP-1 receptor (unknown origin) at 10 uM by agonist displacement assay relative to control
T1 sequence (whole entry): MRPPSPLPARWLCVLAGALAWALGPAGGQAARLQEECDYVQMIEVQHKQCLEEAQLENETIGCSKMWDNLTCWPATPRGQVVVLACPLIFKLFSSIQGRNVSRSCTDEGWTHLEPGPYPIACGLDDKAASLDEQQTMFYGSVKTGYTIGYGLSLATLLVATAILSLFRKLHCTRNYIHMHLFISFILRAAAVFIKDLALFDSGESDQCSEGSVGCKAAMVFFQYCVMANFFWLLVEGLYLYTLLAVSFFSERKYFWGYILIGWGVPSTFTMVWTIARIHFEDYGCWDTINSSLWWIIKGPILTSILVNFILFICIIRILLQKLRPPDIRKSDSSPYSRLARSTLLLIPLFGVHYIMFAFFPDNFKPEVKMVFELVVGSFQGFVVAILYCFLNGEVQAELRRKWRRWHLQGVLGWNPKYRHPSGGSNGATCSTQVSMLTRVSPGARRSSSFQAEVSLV

Adenosine receptor A3 = target: T2, Adenosine receptor A3 (Homo sapiens, UniProt P0DMS8); assay: Binding affinity to adenosine A3 receptor (unknown origin) by agonist displacement assay
T2 sequence (P0DMS8 whole entry): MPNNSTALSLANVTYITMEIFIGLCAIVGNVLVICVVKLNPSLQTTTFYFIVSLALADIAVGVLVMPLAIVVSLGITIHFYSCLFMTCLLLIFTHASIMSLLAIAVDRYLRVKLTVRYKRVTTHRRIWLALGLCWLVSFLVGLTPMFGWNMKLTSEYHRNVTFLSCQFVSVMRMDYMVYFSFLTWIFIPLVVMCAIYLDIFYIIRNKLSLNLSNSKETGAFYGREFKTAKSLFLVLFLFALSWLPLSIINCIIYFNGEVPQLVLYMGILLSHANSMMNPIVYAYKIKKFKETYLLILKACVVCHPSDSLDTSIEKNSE

Mus musculus [5] = assay: Antidiabetic activity in diet-induced obese ICR mouse model assessed as inhibition of glucagon-induced glucose excursion at 10 to 30 mg/kg, po bid measured for 60 mins by glucometer; assay type: functional, organism-based

CC(C)(C)CC[C@H](c1ccc(C(=O)NCc2nn[nH]n2)cc1)N1C(=O)C(c2cc(Cl)cc(Cl)c2)=N[C@]12CC[C@@H](C(C)(C)C)CC2
Vd [1]: 1.3 L/kg
IC50 (Glucagon receptor): 24 nM
Activity (Mus musculus [2]): Active
bioavailability [3]: 15%
inhibition [4]: 75%
Ki (Adenosine receptor A3): 2430 nM
inhibition (Mus musculus [5]): Active
